Read-outs that look alike come from different tables or passages of the source.
Target: T1, LmxCLK1 (Leishmania mexicana, UniProt E9AMP2)
T1 sequence (E9AMP2 1-422): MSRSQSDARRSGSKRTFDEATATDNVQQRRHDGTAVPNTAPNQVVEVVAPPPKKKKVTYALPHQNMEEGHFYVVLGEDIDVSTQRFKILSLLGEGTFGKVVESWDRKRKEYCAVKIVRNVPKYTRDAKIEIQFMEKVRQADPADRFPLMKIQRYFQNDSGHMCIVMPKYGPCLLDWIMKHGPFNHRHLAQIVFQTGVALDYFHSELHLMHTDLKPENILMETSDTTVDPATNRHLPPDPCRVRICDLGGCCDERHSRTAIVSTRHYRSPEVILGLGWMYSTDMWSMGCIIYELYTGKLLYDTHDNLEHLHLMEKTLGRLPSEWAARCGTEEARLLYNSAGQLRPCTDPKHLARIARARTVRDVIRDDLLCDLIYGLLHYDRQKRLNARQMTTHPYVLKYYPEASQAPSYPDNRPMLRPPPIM
Experiment: biochemical
Format: binding

[1] = DSF, 10 µM compound, 2 µM LmxCLK1, Run 1
[2] = DSF, 10 µM compound, 2 µM LmxCLK1, Run 2
[3] = DSF, 10 µM compound, 2 µM LmxCLK1, mean of two runs
[4] = DSF, 10 µM compound, 2 µM LmxCLK1, Run 1, read-out: ΔTm Run 1
[5] = DSF, 10 µM compound, 2 µM LmxCLK1, Run 2, read-out: ΔTm Run 2
[6] = DSF, 10 µM compound, 2 µM LmxCLK1, mean of two runs, read-out: ΔTm Average

| SMILES | ΔTm Run 1 [1] [°C] | ΔTm Run 2 [2] [°C] | ΔTm Average [3] [°C] | ΔTm at 10 µM [4] [°C] | ΔTm at 10 µM [5] [°C] | ΔTm at 10 µM [6] [°C] | other results |
| --- | --- | --- | --- | --- | --- | --- | --- |
| CN(C)c1ccc(-c2nc3ncc(Cl)c(N4CCN(CC(=O)Nc5nccs5)CC4)c3[nH]2)cc1 [CCT129202] | -0.1 | 0.0 | 0.0 | – | – | – | – |
| Cc1cc(CN2CCN(c3c(Br)cnc4nc(-c5ccc(N6CCN(C)CC6)cc5)[nH]c34)CC2)no1 [CCT137690] | 0.3 | 0.4 | 0.3 | – | – | – | – |
| CN1CCN(c2cccc(Nc3nc4c(-c5ccc(S(C)(=O)=O)cc5)cccn4n3)c2)CC1 [CEP-33779] | 0.5 | 0.5 | 0.5 | – | – | – | – |
| Cc1c(NC(=O)c2ccc(C(C)(C)C)cc2)cccc1-c1cn(C)c(=O)c(Nc2ccc(C(=O)N3CCOCC3)cc2)n1 [CGI1746] | – | – | – | 0 | -0.4 | -0.2 | – |
| O=C(NC(NC(=S)Nc1ccc(F)c([N+](=O)[O-])c1)C(Cl)(Cl)Cl)C(c1ccccc1)c1ccccc1 (stereo not drawn) [CGK 733] | -0.6 | 0.0 | -0.3 | – | – | – | – |
| CS(=O)(=O)N1CCc2c(-c3cnc(N)nc3)nc(N3CCOCC3)nc21 [CH5132799] | – | – | – | 0.4 | 0.1 | 0.2 | – |
| O=c1[nH]c2ccc(Cl)cc2c(N[C@@H]2CN3CCC2CC3)c1-c1nc2ccccc2[nH]1 [CHIR-124] | 0.3 | 0.0 | 0.2 | – | – | – | – |
| Cc1cnc(-c2cnc(NCCNc3ccc(C#N)cn3)nc2-c2ccc(Cl)cc2Cl)[nH]1.Cl [CHIR-99021 (CT99021) HCl] | 0.0 | 0.0 | 0.0 | – | – | – | – |
| C=CC(=O)Nc1cccc(Nc2nc(Nc3ccc(N4CCN(C(C)=O)CC4)cc3OC)ncc2C(F)(F)F)c1 [CO-1686 (AVL-301)] | 0.0 | -0.3 | -0.1 | – | – | – | – |
| COCCOc1ccc2c(c1)ncn2-c1ccc2cccc(N3CCC(N)CC3)c2n1 [CP-673451] | – | – | – | 0.1 | 0 | 0 | – |
| COCC(=O)NC/C=C/c1ccc2ncnc(Nc3ccc(Oc4ccc(C)nc4)c(C)c3)c2c1 [CP-724714] | – | – | – | 0.6 | 0.2 | 0.4 | – |
| C#Cc1cccc(Nc2ncnc3cc(OC)c(OCCCCCCC(=O)NO)cc23)c1 [CUDC-101] | – | – | – | 0.4 | 0.2 | 0.3 | – |
| COc1ccc(-c2nc(N3CCOCC3)c3sc(CN(C)c4ncc(C(=O)NO)cn4)cc3n2)cn1 [CUDC-907] | – | – | – | 0.3 | -0.2 | 0 | – |
| Cc1nc(N)sc1-c1ccnc(Nc2ccc(N3CCOCC3)cc2)n1 [CYC116] | – | – | – | 0.4 | -0.1 | 0.1 | – |
| N#CCNC(=O)c1ccc(-c2ccnc(Nc3ccc(N4CCOCC4)cc3)n2)cc1 [CYT387] | – | – | – | 0 | -0.1 | 0 | – |
| CC(C)(C)NS(=O)(=O)c1cncc(-c2cc(F)c3nc(N)nn3c2)c1 [CZC24832] | – | – | – | 0 | -0.2 | -0.1 | – |
| COc1cc2nccc(Oc3ccc(NC(=O)C4(C(=O)Nc5ccc(F)cc5)CC4)cc3)c2cc1OC [Cabozantinib (XL184)] | 0.3 | -0.2 | 0.0 | – | – | – | – |
| COc1cc2nccc(Oc3ccc(NC(=O)C4(C(=O)Nc5ccc(F)cc5)CC4)cc3)c2cc1OC.O=C(O)C[C@H](O)C(=O)O [Cabozantinib malate (XL184)] | 0.1 | -0.3 | -0.1 | – | – | – | – |
| COc1cc2c(Oc3ccc4[nH]c(C)cc4c3F)ncnc2cc1OCCCN1CCCC1 [Cediranib (AZD2171)] | 0.5 | 0.1 | 0.3 | – | – | – | – |
| Cc1cc(O)c2c(c1)C(=O)c1cccc(O)c1C2=O [Chrysophanic Acid] | – | – | – | 0 | -0.2 | -0.1 | – |
| CC1(COc2ccc3c(c2)ncn3-c2ccc3cccc(N4CCC(N)CC4)c3n2)COC1 [Crenolanib (CP-868596)] | 0.5 | -0.1 | 0.2 | – | – | – | – |
| C[C@@H](Oc1cc(-c2cnn(C3CCNCC3)c2)cnc1N)c1c(Cl)ccc(F)c1Cl [Crizotinib (PF-02341066)] | 1.4 | 1.4 | 1.4 | – | – | – | – |

| SMILES | ΔTm Run 1 [1] [°C] | ΔTm Run 2 [2] [°C] | ΔTm Average [3] [°C] | ΔTm at 10 µM [4] [°C] | ΔTm at 10 µM [5] [°C] | ΔTm at 10 µM [6] [°C] | other results |
| --- | --- | --- | --- | --- | --- | --- | --- |
| CNC(=O)c1cc(Oc2ccc(NC(=O)Nc3cc(C(C)(C)C)nn3-c3ccc4ncccc4c3)c(F)c2)ccn1 [DCC-2036 (Rebastinib)] | -0.2 | -0.4 | -0.3 | – | – | – | – |
| CO[C@@H](C(=O)N1Cc2n[nH]c(NC(=O)c3ccc(N4CCN(C)CC4)cc3)c2C1)c1ccccc1 [Danusertib (PHA-739358)] | – | – | – | 0.3 | 0.1 | 0.2 | – |
| CCC[C@H](NC(=O)/C(C#N)=C/c1cccc(Br)n1)c1ccccc1 [Degrasyn (WP1130)] | 0.4 | 0.2 | 0.3 | – | – | – | – |
| CC(O)C(=O)O.CC(O)C(=O)O.CN1CCN(c2ccc3nc(-c4c(N)c5c(F)cccc5[nH]c4=O)[nH]c3c2)CC1 [Dovitinib (TKI-258) Dilactic Acid] | -0.5 | -0.4 | -0.4 | – | – | – | – |
| CN1CCN(c2ccc3nc(-c4c(N)c5c(F)cccc5[nH]c4=O)[nH]c3c2)CC1 [Dovitinib (TKI-258)] | 0.5 | 0.2 | 0.3 | – | – | – | – |
| O=c1cc(CN2CCOCC2)occ1OCCCCCSc1ccnc2cc(C(F)(F)F)ccc12 [EHT 1864] | 0.1 | -0.3 | -0.1 | – | – | – | – |
| CCn1c2ccccc2c2cc(Nc3ccnc(NCCCN4CCOCC4)n3)ccc21 [EHop-016] | -0.1 | 0.0 | 0.0 | – | – | – | – |
| Cc1cc(Nc2cc(N3CCN(C)CC3)nc(/C=C/c3ccccc3)n2)n[nH]1 [ENMD-2076] | – | – | – | 0.3 | 0.1 | 0.2 | – |
| CC(C)(C#N)c1ccc(N2C(=O)OCc3cnc4ccc(-c5cnc6ccccc6c5)cc4c32)cc1 [ETP-46464] | 0.3 | -0.4 | -0.1 | – | – | – | – |
| CO[C@H]1C[C@@H]2CC[C@@H](C)[C@@](O)(O2)C(=O)C(=O)N2CCCC[C@H]2C(=O)O[C@H]([C@H](C)C[C@@H]2CC[C@@H](OCCO)[C@H](OC)C2)CC(=O)[C@H](C)/C=C(\C)[C@@H](O)[C@@H](OC)C(=O)[C@H](C)C[C@H](C)/C=C/C=C/C=C/1C [Everolimus (RAD001)] | 0.2 | -0.2 | 0.0 | – | – | – | – |
| CCCCCCCCc1ccc(CCC(N)(CO)CO)cc1.Cl [Fingolimod (FTY720) HCl] | 0.2 | -0.1 | 0.1 | – | – | – | – |
| COc1cc2c(Oc3ccc(NC(=O)C4(C(=O)Nc5ccc(F)cc5)CC4)cc3F)ccnc2cc1OCCCN1CCOCC1 [Foretinib (GSK1363089)] | 0.4 | -0.4 | 0.0 | – | – | – | – |
| CCNC(=O)Nc1ccc(-c2nc3c(c(N4CCOC[C@@H]4C)n2)CCN(C2COC2)C3)cc1 [GDC-0349] | – | – | – | -0.1 | -0.1 | -0.1 | – |
| OCCn1cc(-c2ccc3c(c2)CC/C3=N\O)c(-c2ccncc2)n1 [GDC-0879] | – | – | – | 0 | -0.2 | -0.1 | – |
| CS(=O)(=O)N1CCN(Cc2cc3nc(-c4cccc5[nH]ncc45)nc(N4CCOCC4)c3s2)CC1 [GDC-0941] | – | – | – | 0.1 | 0 | 0.1 | – |
| Cc1c(CN2CCN(C(=O)[C@H](C)O)CC2)sc2c(N3CCOCC3)nc(-c3cnc(N)nc3)nc12 [GDC-0980 (RG7422)] | – | – | – | 0.1 | -0.1 | 0 | – |
| CNc1nc(Nc2cn(C(C)(C)C#N)nc2C)ncc1C(F)(F)F [GNE-0877] | – | – | – | -0.1 | -0.2 | -0.1 | – |
| CC1=C(C(=O)Nc2cc3cn[nH]c3cc2F)C(c2ccc(C(F)(F)F)cc2)CC(=O)N1 (stereo not drawn) [GSK429286A] | – | – | – | 0.1 | 0.2 | 0.1 | – |
| C[C@@H](Oc1cc(-n2cnc3ccc(CN4CCN(C)CC4)cc32)sc1C(N)=O)c1ccccc1C(F)(F)F [GSK461364] | – | – | – | 0.6 | 0.1 | 0.4 | – |
| CCn1c(-c2nonc2N)nc2c(C#CC(C)(C)O)ncc(OC[C@H]3CCCNC3)c21 [GSK690693] | – | – | – | 0.1 | -0.3 | -0.1 | – |
| CNC(=O)c1c(F)cccc1Nc1nc(Nc2cc3c(cc2OC)CCN3C(=O)CN(C)C)nc2[nH]ccc12 [GSK1838705A] | – | – | – | – | – | – | ΔTm Average: -0.2; ΔTm Run 1: -0.1; ΔTm Run 2: -0.3 |
| CCc1cc(Nc2nccc(-c3c(-c4ccc(OC)c(C(=O)Nc5c(F)cccc5F)c4)nc4ccccn34)n2)c(OC)cc1N1CCC(N2CCN(S(C)(=O)=O)CC2)CC1 [GSK1904529A] | – | – | – | – | – | – | ΔTm Average: 0.2 °C; ΔTm Run 1: 0.2 °C; ΔTm Run 2: 0.1 °C |
